In patent US6303630A, “Diarylsulfone non-nucleoside reverse transcriptase inhibitors of human immunodeficiency virus” (University of the Sciences in Philadelphia, priority 2000, dated 2001):
Where two headings read alike, the source gives them in different places.

Tests used:
HIV-1 = test: NCI in vitro anti-HIV drug screen: XTT-formazan assay, protection of T4 lymphocytes (CEM) from HIV-1 cytopathic effects; assay type: cell-based, human immunodeficiency virus (HIV-1); details: for EC50 / inhibition at 200 µM / inhibition at 2 µM / inhibition at 0.2 µM / inhibition at 0.634 µM / inhibition at 0.0635 µM / inhibition at 20 µM / inhibition at 63.2 µM / inhibition at 6.33 µM: Human immunodeficiency virus 1, CCRF-CEM; for EC50: 144 h, HIV-1 infected CEM cells, 6 days, XTT, approximate values, read-out: EC50 (50% effective concentration against HIV cytopathic effects); for inhibition at 200 µM / activity at 200 µM: dose 2.00 × 10^-4 Molar; for inhibition at 2 µM / activity at 2 µM: dose 2.00 × 10^-6 Molar; for inhibition at 0.2 µM / activity at 0.2 µM: dose 2.00 × 10^-7 Molar; for inhibition at 0.634 µM / activity at 0.634 µM: dose 6.34 × 10^-7 Molar; for inhibition at 0.0635 µM / activity at 0.0635 µM: dose 6.35 × 10^-8 Molar; for activity at 200 µM / activity at 20 µM / activity at 2 µM / activity at 0.2 µM / activity at 63.2 µM / activity at 6.33 µM / activity at 0.634 µM / activity at 0.0635 µM: Human immunodeficiency virus 1, Lymphocyte, read-out: Percent of Control, Infected; for TI50 (IC/EC), Therapeutic Index: IC50/EC50
Method: Compounds of the present invention were evaluated for anti-HIV efficacy by the National Cancer Institute's (NCI) In Vitro Anti AIDS Drug Discovery Program.
(§1) The NCI procedure is fully described, for example, in a bulletin provided by the National Institutes of Health, National Cancer Institute, Bethesda, Md. 20892, all of which is incorporated herein by reference. As related in the NCI bulletin, the procedure is based on O. W. Weislow et al., "New soluble-formazan assay for HIV-1 cytopathic effects: application to high flux screening of synthetic and natural products for AIDS-antiviral activity", J. Natl. Cancer Inst. 81:577-586 (1989), and is used to test for compounds active against human immunodeficiency virus (HIV), and is designed to detect compounds active at any stage of the virus reproductive cycle. As further related in the NCI bulletin, the assay includes killing of T4 lymphocytes by HIV. Amounts of HIV are added to cells, with a minimum of two cycles of virus reproduction found to be necessary to obtain the required cell killing. Compounds that interact with virions, cells, or virus gene-products to interfere with viral activities will protect cells from cytolysis. All were compared with a positive (e.g., AZT-treated) control evaluation at the same time under identical conditions. The procedure is set forth as follows:
(§2) A candidate compound is first dissolved in a suitable solvent, preferably dimethyl sulfoxide, then diluted 1:100 in cell culture medium before preparing serial half-log10 dilutions. T4 lymphocytes (CEM cell line) are then added and after a brief interval HIV-1 is added, resulting in a 1:200 final dilution of the compound. Uninfected cells with the compound serve as a toxicity control, and infected and uninfected without the compound serve as basic controls. Cultures are then incubated at 37° in a 5% carbon dioxide atmosphere for 6 days. The tetrazolium salt, XTT, is added to all wells, and cultures are incubated to allow formazan color development by viable cells. Individual wells are analyzed spectrophotometrically to quantitate formazan product, and in addition are viewed microscopically for detection of viable cells and confirmation of protective activity. Drug-treated virus-infected cells are compared with drug-treated noninfected cells and with other appropriate controls (untreated infected and untreated noninfected cells, drug-containing wells without cells, etc.) on the same plate. Data are reviewed in comparison with other tests performed at the same time and a determination as to activity is made.

[1] = tested on: T4 lymphocytes (CEM cell line); test: Cell growth / toxicity control in uninfected T4 lymphocytes (CEM), XTT-formazan; assay type: cell-based; details: Homo sapiens, CCRF-CEM; for IC50: 144 h, uninfected CEM cells, 6 days, XTT, approximate values, read-out: IC50 (50% inhibitory concentration for cell growth); for activity at 200 µM: dose 2.00 × 10^-4 Molar; for activity at 200 µM / activity at 20 µM / activity at 2 µM / activity at 0.2 µM / activity at 63.2 µM / activity at 6.33 µM / activity at 0.634 µM / activity at 0.0635 µM: read-out: Percent of Control, Uninfected; for activity at 20 µM: dose 2.00 × 10^-5 Molar; for activity at 2 µM: dose 2.00 × 10^-6 Molar; for activity at 0.2 µM: dose 2.00 × 10^-7 Molar; for activity at 63.2 µM: dose 6.32 × 10^-5 Molar; for activity at 6.33 µM: dose 6.33 × 10^-6 Molar; for activity at 0.634 µM: dose 6.34 × 10^-7 Molar; for activity at 0.0635 µM: dose 6.35 × 10^-8 Molar
Description: as §1, §2

[2] = read-out: Percent of Protection

SMILES: CN(c1ccccc1Cl)S(=O)(=O)c1ccccc1[N+](=O)[O-] [Compound 38, N-(2-nitrophenylsulfonyl)-2chloro-N-methylaniline]
- EC50 (HIV-1): 4.38 µM
- inhibition at 200 µM (HIV-1; [2]): 2.73%
- inhibition at 2 µM (HIV-1; [2]): 10.4%
- inhibition at 0.2 µM (HIV-1; [2]): 2.73%
- inhibition at 0.634 µM (HIV-1; [2]): -0.31%
- inhibition at 0.0635 µM (HIV-1; [2]): -0.27%
- inhibition at 20 µM (HIV-1; read-out: Percent of Protection, dose 2.00 × 10^-5 Molar): 61.9%
- inhibition at 63.2 µM (HIV-1; read-out: Percent of Protection, dose 6.32 × 10^-5 Molar): -0.27%
- inhibition at 6.33 µM (HIV-1; read-out: Percent of Protection, dose 6.33 × 10^-6 Molar): 69%
- activity at 200 µM (HIV-1): 28.4%
- activity at 20 µM (HIV-1; dose 2.00 × 10^-5 Molar): 63.8%
- activity at 2 µM (HIV-1): 14.9%
- activity at 0.2 µM (HIV-1): 7.25%
- activity at 63.2 µM (HIV-1; dose 6.32 × 10^-5 Molar): 26.1%
- activity at 6.33 µM (HIV-1; dose 6.33 × 10^-6 Molar): 70.6%
- activity at 0.634 µM (HIV-1): 4.71%
- activity at 0.0635 µM (HIV-1): 4.74%
- TI50 (IC/EC), Therapeutic Index (HIV-1): 7.79 × 10^0
- IC50 [1]: 34.1 µM
- activity at 200 µM [1]: 3.62%
- activity at 20 µM [1]: 75.7%
- activity at 2 µM [1]: 98.2%
- activity at 0.2 µM [1]: 99.3%
- activity at 63.2 µM [1]: 20.3%
- activity at 6.33 µM [1]: 94.2%
- activity at 0.634 µM [1]: 98.6%
- activity at 0.0635 µM [1]: 101%

SMILES: CNc1ccc(Cl)cc1S(=O)(=O)c1ccccc1[N+](=O)[O-] [Compound 72, 2-(2-nitrophenylsulfonyl)4-chloro-N-methylaniline]
- EC50 (HIV-1): 0.075 µM
- inhibition at 200 µM (HIV-1; [2]): 74%
- inhibition at 20 µM (HIV-1; dose 2.00 × 10^-5 Molar, read-out: Percent of Protection): 84%
- inhibition at 2 µM (HIV-1; [2]): 93.4%
- inhibition at 0.2 µM (HIV-1; [2]): 76%
- inhibition at 63.2 µM (HIV-1; dose 6.32 × 10^-5 Molar, read-out: Percent of Protection): 85.5%
- inhibition at 6.33 µM (HIV-1; dose 6.33 × 10^-6 Molar, read-out: Percent of Protection): 93.3%
- inhibition at 0.634 µM (HIV-1; [2]): 102%
- inhibition at 0.0635 µM (HIV-1; [2]): 46.1%
- activity at 200 µM (HIV-1): 74.5%
- activity at 20 µM (HIV-1; dose 2.00 × 10^-5 Molar): 84.3%
- activity at 2 µM (HIV-1): 93.6%
- activity at 0.2 µM (HIV-1): 76.5%
- activity at 63.2 µM (HIV-1; dose 6.32 × 10^-5 Molar): 85.8%
- activity at 6.33 µM (HIV-1; dose 6.33 × 10^-6 Molar): 93.4%
- activity at 0.634 µM (HIV-1): 102%
- activity at 0.0635 µM (HIV-1): 47.1%
- TI50 (IC/EC), Therapeutic Index (HIV-1): > 2.67 × 10^+3
- IC50 [1]: > 200 µM
- activity at 200 µM [1]: 84%
- activity at 20 µM [1]: 93.6%
- activity at 2 µM [1]: 95.8%
- activity at 0.2 µM [1]: 102%
- activity at 63.2 µM [1]: 97%
- activity at 6.33 µM [1]: 101%
- activity at 0.634 µM [1]: 101%
- activity at 0.0635 µM [1]: 99%
